Experimental data taken from US20250154131A1 (HAINAN SIMCERE PHARMACEUTICAL CO., LTD., priority 2021, published 2025).

Molecular target: SARS-COV-2 3CL Protease (Severe acute respiratory syndrome coronavirus 2 (2019-nCoV) (SARS-CoV-2), UniProt P0DTD1)
Assay: biochemical
Format: biochemical
Details: recombinant MBP-tagged 3CL protease, 30 min preincubation

| Compound | IC50 (class symbol column) [nM] | IC50 (numeric column) [nM] |
| --- | --- | --- |
| CC1(C)[C@@H]2[C@@H](C(=O)N[C@H](C#N)C[C@@H]3CCNC3=O)N(C(=O)C(NC(=O)C(F)(F)F)C3CC4(CCC4)C3)C[C@@H]21 (stereo partly drawn) [Compound 3, (1R,2S,5S)—N—((S)-1-cyano-2-((S)-2-carbonylpyrrolidin-3-yl)ethyl)-6,6-dimethyl-3-(2-(spiro[3.3]heptan-2-yl)-2-(2,2,2-trifluoroacetamido)acetyl)-3-azabicyclo[3.1.0]hexane-2-carboxamide] | 100 to 1000 | 525 |
| CC1(C)[C@@H]2[C@@H](C(=O)N[C@H](C#N)C[C@@H]3CCNC3=O)N(C(=O)[C@H](Cc3ccc4ccccc4c3)NC(=O)C(F)(F)F)C[C@@H]21 [Compound 4, (1R,2S,5S)—N—((S)-1-Cyano-2-((S)-2-carbonylpyrrolidin-3-yl)ethyl)-6,6-dimethyl-3-((S)-3-(naphthalen-2-yl)-2-(2,2,2-trifluoroacetamido)propanoyl)-3-azabicyclo[3.1.0]hexane-2-carboxamide] | 100 to 1000 | 273 |
| CC1(C)[C@@H]2[C@@H](C(=O)N[C@H](C#N)CC3C(=O)Nc4ccccc43)N(C(=O)[C@@H](NC(=O)C(F)(F)F)C34CC5CC(CC(O)(C5)C3)C4)C[C@@H]21 (stereo partly drawn) [Compound 5, (1R,2S,5S)—N-((1S)-1-Cyano-2-(2-carbonylindolin-3-yl)ethyl)-3-((S)-2-((1r,3R,5R,7S)-3-hydroxyadamantan-1-yl)-2-(2,2,2-trifluoroacetamido)acetyl)-6,6-dimethyl-3-azabicyclo[3.1.0]hexane-2-carboxamide] | < 100 | 69.8 |
| CN(C)C1CCC(C(NC(=O)C(F)(F)F)C(=O)N2C[C@H]3[C@@H]([C@H]2C(=O)N[C@H](C#N)C[C@@H]2CCNC2=O)C3(C)C)CC1 (stereo partly drawn) [Compound 6, (1R,2S,5S)—N—((S)-1-cyano-2-((S)-2-oxopyrrolidin-3-yl)ethyl)-3-(2-(4-(dimethylamino)cyclohexane)-2-(2,2,2-trifluoroacetamido)acetyl)-6,6-dimethyl-3-azabicyclo[3.1.0]cyclohexane-2-carboxamide] | 100 to 1000 | 449 |
| CN(C)CCCC[C@H](NC(=O)C(F)(F)F)C(=O)N1C[C@H]2[C@@H]([C@H]1C(=O)N[C@H](C#N)C[C@@H]1CCNC1=O)C2(C)C [Compound 7, (1R,2S,5S)—N—((S)-1-cyano-2-((S)-2-oxopyrrolidin-3-yl)ethyl)-3-(N^6,N^6-dimethyl-N^2-(2,2,2-trifluoroacetyl)-L-lysyl)-6,6-dimethyl-3-azabicyclo[3.1.0]cyclohexane-2-carboxamide] | 1000 to 10000 | 1110 |
| CC(C)(C)[C@H](NC(=O)C(F)(F)F)C(=O)N1C[C@H]2[C@@H]([C@H]1C(=O)N[C@H](C#N)CC1C(=O)Nc3ncccc31)C2(C)C (stereo partly shown) [Compound 8] | < 100 | 33.4 |
| CC(C)(C)[C@H](NC(=O)C(F)(F)Cl)C(=O)N1C[C@H]2[C@@H]([C@H]1C(=O)N[C@H](C#N)CC1C(=O)Nc3ccccc31)C2(C)C (stereo partly drawn) [Compound 9, (1R,2S,5S)-3-((S)-2-(2-Chloro-2,2-difluoroacetamido)-3,3-dimethylbutanoyl)-N-((1S)-1-cyano-2-(2-oxoindol-3-yl)ethyl)-6,6-dimethyl-3-azabicyclo[3.1.0]hexane-2-carboxamide] | < 100 | 25.2 |
| CC1(C)[C@@H]2[C@@H](C(=O)N[C@H](C#N)C[C@@H]3CCNC3=O)N(C(=O)[C@@H](NC(=O)C(F)(F)F)C34C[C@@H]5C[C@@H](CC(O)(C5)C3)C4)C[C@@H]21 [Compound 10, (1R,2S,5S)—N—((S)-1-Cyano-2-((S)-2-oxopyrrolidin-3-yl)ethyl)-3-((S)-2-((1R,3R,5R,7S)-3-hydroxyadamantan-1-yl)-2-(2,2,2-trifluoroacetamido)acetyl)-6,6-dimethyl-3-azabicyclo[3.1.0]hexane-2-carboxamide] | < 100 | 69.8 |
